According to patent publication US12036229B2, “Use of phosphorylated heptose compounds” (NATIONAL RESEARCH COUNCIL OF CANADA, priority 2017, dated 2024):

Tested on: CT26 cells (colon carcinoma from BALB/c mice)
Assay: CT26 tumour model in BALB/c mice
Format: in vivo
Conditions: intraperitoneal; HMP 200 μg per day D10, D11, D12; LPS 1x at 3 mg/kg; 11 day period, vs PBS; FIG. 14c

lipopolysaccharide [LPS]
change in tumour volume relative to day 10 (rate of tumour growth): significantly reduced the rate of tumour growth
